Assay results as given in US6720314B1, “Use of a vital dye for facilitating surgical procedures for cataract extraction” (priority 1998, dated 2004).

Columns and labels:
anterior lens capsule = experiment: staining capacity of the dyes (general statement); settings: very low amounts of dye
[1] = toxicity profile of the dyes (general statement)

In the case of `CCN(CC)c1ccc2nc3cc(C)c(N)cc3[o+]c2c1.[Cl-]` [brilliant crysyl blue], the staining (anterior lens capsule) is reported as “clearly visible staining at very low amounts” and the toxicity profile [1] is reported as “extremely advantageous toxicity profile”.

With `Cc1cc(-c2ccc(/N=N/c3c(S(=O)(=O)O)cc4cc(S(=O)(=O)O)cc(N)c4c3O)c(C)c2)ccc1/N=N/c1c(S(=O)(=O)O)cc2cc(S(=O)(=O)O)cc(N)c2c1O` [trypan blue] the staining (anterior lens capsule) was “clearly visible staining at very low amounts” and the toxicity profile [1] was “extremely advantageous toxicity profile”.

With `Nc1c(S(=O)(=O)[O-])cc2cc(S(=O)(=O)[O-])ccc2c1N=Nc1ccc(-c2ccc(N=Nc3c(N)c(S(=O)(=O)[O-])cc4cc(S(=O)(=O)[O-])ccc34)c(S(=O)(=O)[O-])c2)cc1.[Na+].[Na+].[Na+].[Na+].[Na+]` [trypan red] the staining (anterior lens capsule) was “clearly visible staining at very low amounts”.
